This series has as its system Liver Response-Associated Features (LRFs) in serum/plasma (blood). Kind of series: Proteome analysis (2D electrophoresis, Reference Protocol) of depleted serum/plasma of drug-treated vs control animals: relative abundance of LRFs. The text has this:
Samples from animals treated with various drugs at various timepoints and various dose levels can be collected, prepared, and analysed as described herein. […] Using the following procedure, proteins in liver tissue and serum/plasma from 5 control animals and 5 animals having liver response induced through drug treatment were separated by isoelectric focusing followed by SDS-PAGE and analyzed. Samples were taken and analyzed at three different time points designated “early”, “full manifestation” and “late”. Parts 6.1.1 to 6.1.9 (inclusive) of the procedure set forth below are hereby designated as the “Reference Protocol”.
Approximately 200 μl venous blood was collected at the time of necropsy in serum seperation tubes and serum obtained by centrifugation for 3 minutes at 11,000 rpm using a Biofuge A centrifuge. 100 μl of the resulting serum was added to 15 μl protease inhibitor, vortexed and frozen at −80° C.
A protein assay (Pierce (Rockford, Ill.) BCA Cat #23225) was performed on each serum/plasma sample as received. Prior to protein separation, each sample was processed for selective depletion of certain proteins, in order to enhance and simplify protein separation and facilitate analysis by removing proteins that may interfere with or limit analysis of proteins of interest. See International Patent Application No. PCT/GB99/01742, filed Jun. 1, 1999, which is incorporated by reference in its entirety, with particular reference to pages 3 and 6.
This was done by circulating the following solutions sequentially through the columns: (1) Dulbecco's Phosphate Buffered Saline (Gibco BRL Cat. No. 14190-094); (2) concentrated antibody solution; (3) 200 mM sodium carbonate buffer, pH 8.35; (4) cross-linking solution (200 mM sodium carbonate buffer, pH 8.35, 20 mM dimethylpimelimidate); and (5) 500 mM ethanolamine, 500 mM NaCl. A third (un-derivatised) protein G Hi-Trap column was then attached to the lower end of the tandem column assembly.
The chromatographic procedure was automated using an Akta Fast Protein Liquid Chromatography (FPLC) System such that a series of up to seven runs could be performed sequentially. […] Fractions (typically 3 ml per tube) were collected of unbound material (“Flowthrough fractions”) that eluted through the column during column loading and washing stages and of bound proteins (“Bound/Eluted fractions”) that were eluted by step elution with Immunopure Gentle Ag/Ab Elution Buffer (Pierce Cat. No. 21013). The eluate containing unbound material was collected in fractions which were pooled, desalted/concentrated by centrifugal ultrafiltration and stored to await further analysis by 2D PAGE.
A volume of depleted serum/plasma containing approximately 300 μg of total protein was aliquoted and an equal volume of 10% (w/v) SDS (Fluka 71729), 2.3% (w/v) dithiothreitol (BDH 443852A) was added. The sample was heated at 95° C. for 5 mins, and then allowed to cool to 20° C . 125 μl of the following buffer was then added to the sample:
This mixture was vortexed, and centrifuged at 13000 rpm for 5 mins at 15° C., and the supernatant was analyzed by isoelectric focusing.
Isoelectric focusing (IEF), was performed using the Immobiline® DryStrip Kit (Pharmacia BioTech), following the procedure described in the manufacturer's instructions, see Instructions for Immobilineg DryStrip Kit, Pharmacia, #18-1038-63, Edition AB (incorporated herein by reference in its entirety). Immobilized pH Gradient (IPG) strips (18 cm, pH 3-10 non-linear strips; Pharmacia Cat. #17-1235-01) were rehydrated overnight at 20° C. in a solution of 8M urea, 2% (w/v) CHAPS, 10 mM DTT, 2% (v/v) Resolytes 3.5-10, as described in the Immobiline DryStrip Users Manual. For IEF, 50 μl of supernatant (prepared as above) was loaded onto a strip, with the cup-loading units being placed at the basic end of the strip.

The values that follow come from patent US20030228583A1, “Biomarkers of liver response” (priority 2001, published 2003).

The structures appear in SMILES notation.

As for `CCC1(c2ccccc2)C(=O)NC(=O)NC1=O` [phenobarbital], under “Early, P 0.0075”, the “Fold Change LRF-235” value is listed as 8.26 fold. Further, the “Fold Change LRF-223” value (Early, P 0.0117) is 1.34 fold. Further, where the note is “Early, P 0.0119”, the “Fold Change LRF-158” value is reported as −1.33 fold. In addition, the “Fold Change LRF-217” value (Early, P 0.0122) came to 2.16 fold. Further, the “Fold Change LRF-182” value (Early, P 0.0178) was −2.81 fold. For the same compound, under “Early, P 0.0212”, the “Fold Change LRF-179” value is recorded as −1.37 fold. Further, the “Fold Change LRF-224” value (Early, P 0.0216) was found to be 1.30 fold. Further, the “Fold Change LRF-369” value (Late, P 0.0097) was found to be 2.53 fold. Also, the “Fold Change LRF-371” value (Late, P 0.0109) is given as 3.02 fold. Moreover, the “Fold Change LRF-257” value (Middle, P 0.0122) is given as −1.42 fold. Moreover, where the note is “Middle, P 0.0212”, the “Fold Change LRF-259” value is listed as −1.34 fold. For the same compound, where the note is “Middle, P 0.0216”, the “Fold Change LRF-294” value is 1.57 fold.
